Experimental findings from patent US10383938B2 (priority 2010, dated 2019) are described below.

Experiment [1] has as its system HA-specific IgG2a. Further details: species or system mice. As to conditions: mouse, in vivo, sc, 1 mg/kg.
Experiment [2] deals with HA-specific IgG1 and IgG2a. Further details: species or system Balb/c male mice. The conditions noted are these: mouse, in vivo.

Where “and” joins values, the source holds several entries; their conditions need not be identical. Identical values can stand only once.

Regarding `CCOCc1nc2c(N)nc3ccccc3c2n1CC(C)(C)O` [Resiquimod, resiquimod, reference compound], in experiment [1], the “HA Specific IgG2a, Serum Dilution End Point” value amounted to 1.00E+05.
Regarding `CCCCCCCCCCCCCCCCCC(=O)NCCCCOn1c(CCCC)nc2c(N)nc3ccccc3c21` [N-(4-{[4-amino-2-butyl-1H-imidazo[4,5-c]quinolin-1-yl]oxy}butyl)octadecanamide], the “IgG1 End Point” value in experiment [2] was 1.7E7 and 1.4E7 and 1.1E7. In addition, the “antibody response to HA (in words)” value in experiment [2] (0.1 mg/kg) is on record as “greatly enhanced the antibody response”. For the same molecule, the “HA Specific IgG2a, Serum Dilution End Point” value in experiment [1] is given as 1.42E+04.
